Assay: SAD study: cardiac safety (ECG, telemetry, QTcF prolongation)

CCC(=O)C(C[C@H](C)N(C)C)(c1ccccc1)c1ccccc1 [d-methadone]
Overall ECG result Abnormal, NCS (5 mg (N = 6), 0.5 h): 0 n (%)
Overall ECG result Normal (5 mg (N = 6), 0.5 h): 6 n (%)
Overall ECG result Abnormal, NCS (5 mg (N = 6), 1 h): 1 n (%)
Overall ECG result Normal (5 mg (N = 6), 1 h): 5 n (%)
Overall ECG result Abnormal, NCS (5 mg (N = 6), 2 h): 3 n (%)
Overall ECG result Normal (5 mg (N = 6), 2 h): 3 n (%)
Overall ECG result Abnormal, NCS (5 mg (N = 6), 3 h): 2 n (%)
Overall ECG result Normal (5 mg (N = 6), 3 h): 4 n (%)
Overall ECG result Abnormal, NCS (5 mg (N = 6), 5 h): 2 n (%)
Overall ECG result Normal (5 mg (N = 6), 5 h): 4 n (%)
Overall ECG result Abnormal, NCS (5 mg (N = 6), 8 h): 0 n (%)
Overall ECG result Normal (5 mg (N = 6), 8 h): 6 n (%)
Overall ECG result Abnormal, NCS (5 mg (N = 6), 12 h): 0 n (%)
Overall ECG result Normal (5 mg (N = 6), 12 h): 6 n (%)
Overall ECG result Abnormal, NCS (5 mg (N = 6), 24 h): 1 n (%)
Overall ECG result Normal (5 mg (N = 6), 24 h): 5 n (%)
Overall ECG result Abnormal, NCS (5 mg (N = 6), 48 h): 0 n (%)
Overall ECG result Normal (5 mg (N = 6), 48 h): 6 n (%)
Overall ECG result Abnormal, NCS (5 mg (N = 6), 72 h): 0 n (%)
Overall ECG result Normal (5 mg (N = 6), 72 h): 6 n (%)
Overall ECG result Abnormal, NCS (5 mg (N = 6), Visit 3): 1 n (%)
Overall ECG result Normal (5 mg (N = 6), Visit 3): 5 n (%)
QTcF Average (5 mg, subject 9002, 5 h): 445 ms
QTcF Reading 1 (5 mg, subject 9002, 5 h): 451 ms
QTcF Reading 2 (5 mg, subject 9002, 5 h): 446 ms
QTcF Reading 3 (5 mg, subject 9002, 5 h): 439 ms
QTcF Average (5 mg, subject 9003, 1 h): 420 ms
QTcF Reading 1 (5 mg, subject 9003, 1 h): 437 ms
QTcF Reading 2 (5 mg, subject 9003, 1 h): 411 ms
QTcF Reading 3 (5 mg, subject 9003, 1 h): 412 ms
QTcF Average (5 mg, subject 9003, 2 h): 432 ms
QTcF Reading 1 (5 mg, subject 9003, 2 h): 440 ms
QTcF Reading 2 (5 mg, subject 9003, 2 h): 434 ms
QTcF Reading 3 (5 mg, subject 9003, 2 h): 421 ms
QTcF Average (5 mg, subject 9003, 3 h): 429 ms
QTcF Reading 1 (5 mg, subject 9003, 3 h): 424 ms
QTcF Reading 2 (5 mg, subject 9003, 3 h): 427 ms
QTcF Reading 3 (5 mg, subject 9003, 3 h): 435 ms
QTcF Average (5 mg, subject 9003, 5 h): 432 ms
QTcF Reading 1 (5 mg, subject 9003, 5 h): 434 ms
QTcF Reading 2 (5 mg, subject 9003, 5 h): 435 ms
QTcF Reading 3 (5 mg, subject 9003, 5 h): 426 ms
QTcF Average (5 mg, subject 9009, 2 h): 420 ms
QTcF Reading 1 (5 mg, subject 9009, 2 h): 413 ms
QTcF Reading 2 (5 mg, subject 9009, 2 h): 431 ms
QTcF Reading 3 (5 mg, subject 9009, 2 h): 417 ms
Overall ECG result Abnormal, NCS (20 mg (N = 6), 0.5 h): 1 (16.7) n (%)
Overall ECG result Normal (20 mg (N = 6), 0.5 h): 5 (83.3) n (%)
Overall ECG result Abnormal, NCS (20 mg (N = 6), 1 h): 1 (16.7) n (%)
Overall ECG result Normal (20 mg (N = 6), 1 h): 5 (83.3) n (%)
Overall ECG result Abnormal, NCS (20 mg (N = 6), 2 h): 2 (33.3) n (%)
Overall ECG result Normal (20 mg (N = 6), 2 h): 4 (66.7) n (%)
Overall ECG result Abnormal, NCS (20 mg (N = 6), 3 h): 2 (33.3) n (%)
Overall ECG result Normal (20 mg (N = 6), 3 h): 4 (66.7) n (%)
Overall ECG result Abnormal, NCS (20 mg (N = 6), 5 h): 1 (16.7) n (%)
Overall ECG result Normal (20 mg (N = 6), 5 h): 5 (83.3) n (%)
Overall ECG result Abnormal, NCS (20 mg (N = 6), 8 h): 1 (16.7) n (%)
Overall ECG result Normal (20 mg (N = 6), 8 h): 5 (83.3) n (%)
Overall ECG result Abnormal, NCS (20 mg (N = 6), 12 h): 1 (16.7) n (%)
Overall ECG result Normal (20 mg (N = 6), 12 h): 5 (83.3) n (%)
Overall ECG result Abnormal, NCS (20 mg (N = 6), 24 h): 1 (16.7) n (%)
Overall ECG result Normal (20 mg (N = 6), 24 h): 5 (83.3) n (%)
Overall ECG result Abnormal, NCS (20 mg (N = 6), 48 h): 2 (33.3) n (%)
Overall ECG result Normal (20 mg (N = 6), 48 h): 4 (66.7) n (%)
Overall ECG result Abnormal, NCS (20 mg (N = 6), 72 h): 1 (16.7) n (%)
Overall ECG result Normal (20 mg (N = 6), 72 h): 5 (83.3) n (%)
Overall ECG result Abnormal, NCS (20 mg (N = 6), Visit 3): 0 n (%)
Overall ECG result Normal (20 mg (N = 6), Visit 3): 6 (100) n (%)
Overall ECG result Abnormal, NCS (60 mg (N = 6), 0.5 h): 1 (16.7) n (%)
Overall ECG result Normal (60 mg (N = 6), 0.5 h): 5 (83.3) n (%)
Overall ECG result Abnormal, NCS (60 mg (N = 6), 1 h): 2 (33.3) n (%)
Overall ECG result Normal (60 mg (N = 6), 1 h): 4 (66.7) n (%)
Overall ECG result Abnormal, NCS (60 mg (N = 6), 2 h): 2 (33.3) n (%)
Overall ECG result Normal (60 mg (N = 6), 2 h): 4 (66.7) n (%)
Overall ECG result Abnormal, NCS (60 mg (N = 6), 3 h): 1 (16.7) n (%)
Overall ECG result Normal (60 mg (N = 6), 3 h): 5 (83.3) n (%)
Overall ECG result Abnormal, NCS (60 mg (N = 6), 5 h): 1 (16.7) n (%)
Overall ECG result Normal (60 mg (N = 6), 5 h): 5 (83.3) n (%)
Overall ECG result Abnormal, NCS (60 mg (N = 6), 8 h): 2 (33.3) n (%)
Overall ECG result Normal (60 mg (N = 6), 8 h): 4 (66.7) n (%)
Overall ECG result Abnormal, NCS (60 mg (N = 6), 12 h): 3 (50.0) n (%)
Overall ECG result Normal (60 mg (N = 6), 12 h): 3 (50.0) n (%)
Overall ECG result Abnormal, NCS (60 mg (N = 6), 24 h): 2 (33.3) n (%)
Overall ECG result Normal (60 mg (N = 6), 24 h): 4 (66.7) n (%)
Overall ECG result Abnormal, NCS (60 mg (N = 6), 48 h): 2 (33.3) n (%)
Overall ECG result Normal (60 mg (N = 6), 48 h): 4 (66.7) n (%)
Overall ECG result Abnormal, NCS (60 mg (N = 6), 72 h): 1 (16.7) n (%)
Overall ECG result Normal (60 mg (N = 6), 72 h): 5 (83.3) n (%)
Overall ECG result Abnormal, NCS (60 mg (N = 6), Visit 3): 1 (16.7) n (%)
Overall ECG result Normal (60 mg (N = 6), Visit 3): 5 (83.3) n (%)
Overall ECG result Abnormal, NCS (100 mg (N = 6), 0.5 h): 1 n (%)
Overall ECG result Normal (100 mg (N = 6), 0.5 h): 5 n (%)
Overall ECG result Abnormal, NCS (100 mg (N = 6), 1 h): 0 n (%)
Overall ECG result Normal (100 mg (N = 6), 1 h): 6 n (%)
Overall ECG result Abnormal, NCS (100 mg (N = 6), 2 h): 1 n (%)
Overall ECG result Normal (100 mg (N = 6), 2 h): 5 n (%)
Overall ECG result Abnormal, NCS (100 mg (N = 6), 3 h): 3 n (%)
Overall ECG result Normal (100 mg (N = 6), 3 h): 3 n (%)
Overall ECG result Abnormal, NCS (100 mg (N = 6), 5 h): 1 n (%)
Overall ECG result Normal (100 mg (N = 6), 5 h): 5 n (%)
Overall ECG result Abnormal, NCS (100 mg (N = 6), 8 h): 1 n (%)
Overall ECG result Normal (100 mg (N = 6), 8 h): 5 n (%)
Overall ECG result Abnormal, NCS (100 mg (N = 6), 12 h): 0 n (%)
Overall ECG result Normal (100 mg (N = 6), 12 h): 6 n (%)
Overall ECG result Abnormal, NCS (100 mg (N = 6), 24 h): 1 n (%)
Overall ECG result Normal (100 mg (N = 6), 24 h): 5 n (%)
Overall ECG result Abnormal, NCS (100 mg (N = 6), 48 h): 1 n (%)
Overall ECG result Normal (100 mg (N = 6), 48 h): 5 n (%)
Overall ECG result Abnormal, NCS (100 mg (N = 6), 72 h): 0 n (%)
Overall ECG result Normal (100 mg (N = 6), 72 h): 6 n (%)
Overall ECG result Abnormal, NCS (100 mg (N = 6), Visit 3): 0 n (%)
Overall ECG result Normal (100 mg (N = 6), Visit 3): 6 n (%)
QTcF Average (100 mg, subject 9056, 0.5 h): 425 ms
